Values of other authors in paper PMC4033579 (Journal of experimental therapeutics & oncology, 2012).

Experiments:
[1] = system: breast, ovarian, prostate tumor cells; settings: prostate cells in culture

Cc1cc(Nc2nc(N[C@@H](C)c3ncc(F)cn3)ncc2Cl)[nH]n1 [AZD 1840]
cytotoxicity at concentrations that inhibit Tyr705 phosphorylation [1]: not cytotoxic
angiogenesis in human tumor xenografts (human tumor xenografts): reduction in angiogenesis
growth of human tumor xenografts (human tumor xenografts): reduced growth
